According to US12679807B2 (MERCK SHARP & DOHME LLC, priority 2020, dated 2026):

Molecular target: T1, GCS enzyme contained within Golgi preparations isolated from human A375 malignant melanoma skin cells (Homo sapiens, UniProt Q16739)
T1 construct: endogenous levels of GCS enzyme contained within Golgi preparations isolated from human A375 malignant melanoma skin cells; endogenous in cells; host or cells: A375 human malignant melanoma cells (crude Golgi preparation)
T1 sequence (Q16739 1-394): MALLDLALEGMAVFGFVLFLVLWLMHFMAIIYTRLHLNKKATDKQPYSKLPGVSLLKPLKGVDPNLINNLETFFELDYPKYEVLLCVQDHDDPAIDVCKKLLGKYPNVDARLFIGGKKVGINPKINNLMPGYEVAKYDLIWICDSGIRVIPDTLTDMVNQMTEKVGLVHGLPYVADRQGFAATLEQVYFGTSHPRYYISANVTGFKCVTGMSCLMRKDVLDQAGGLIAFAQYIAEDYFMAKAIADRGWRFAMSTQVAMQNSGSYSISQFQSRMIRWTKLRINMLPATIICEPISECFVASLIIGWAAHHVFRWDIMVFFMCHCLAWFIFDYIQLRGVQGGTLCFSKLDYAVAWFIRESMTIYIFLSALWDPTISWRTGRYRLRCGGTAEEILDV
Assay: UDP-Glo glucosylceramide synthase biochemical assay
Settings: crude Golgi preparation from A375 cells; C6 ceramide and UDP-glucose substrates; 20 h incubation at room temperature; UDP detected by luminescence
Summary of the method: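 Endogenous enzyme in A375 Golgi preparations (1.5 μg total protein) was preincubated 30 min with compound, then reacted 20 h at room temperature with UDP-glucose and ceramide.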

Row | EC50 | Compound
1 | 390 nM | O=C(Nc1cccc2c1C(=O)N(CC1CC1)C2)c1ccnc2c1CCC2 [Compound 146, N-(2-(cyclopropylmethyl)-3-oxoisoindolin-4-yl)-6,7-dihydro-5H-cyclopenta[b]pyridine-4-carboxamide]
2 | 560 nM | O=C(Nc1ccc(Cl)c2c1C(=O)N(CC1CC1)C2)c1ccnc2c1CCC2 [Compound 147, N-(7-chloro-2-(cyclopropylmethyl)-3-oxoisoindolin-4-yl)-6,7-dihydro-5H-cyclopenta[b]pyridine-4-carboxamide]
3 | 500 nM | Cc1cc2c(c(NC(=O)c3ccnc4c3CCC4)c1)C(=O)N(CC1CC1)C2 [Compound 148, N-(2-(Cyclopropylmethyl)-6-methyl-3-oxoisoindolin-4-yl)-6,7-dihydro-5H-cyclopenta[b]pyridine-4-carboxamide]
4 | 900 nM | O=C(Nc1ccc(O)c2c1C(=O)N(CC1CC1)C2)c1ccnc2c1CCC2 [Compound 149, N-(2-(Cyclopropylmethyl)-7-hydroxy-3-oxoisoindolin-4-yl)-6,7-dihydro-5H-cyclopenta[b]pyridine-4-carboxamide]
5 | 0.97 nM | CC(C)(O)[C@@H](C1CC1)N1Cc2cccc(NC(=O)c3cccn4nccc34)c2C1=O [Compound 156, (R)-N-(2-(1-cyclopropyl-2-hydroxy-2-methylpropyl)-3-oxoisoindolin-4-yl)pyrazolo[1,5-a]pyridine-4-carboxamide]
6 | 2.5 nM | COc1nccc(C(=O)Nc2cccc3c2C(=O)N([C@H](C2CC2)C(C)(C)O)C3)c1C [Compound 159, (R)-N-(2-(1-cyclopropyl-2-hydroxy-2-methylpropyl)-3-oxoisoindolin-4-yl)-2-methoxy-3-methylisonicotinamide]
7 | 9.1 nM | Cn1cc2c(C(=O)Nc3cc(F)cc4c3C(=O)N([C@H](C3CC3)C(C)(C)O)C4)cccc2n1 [Compound 161, (R)-N-(2-(1-cyclopropyl-2-hydroxy-2-methylpropyl)-6-fluoro-3-oxoisoindolin-4-yl)-2-methyl-2H-indazole-4-carboxamide]
8 | 360 nM | O=C(Nc1cccc2c1C(=O)N(CC1(O)CCC1)C2)c1ccnc2c1CCC2 [Compound 166, N-(2-((1-hydroxycyclobutyl)methyl)-3-oxoisoindolin-4-yl)-6,7-dihydro-5H-cyclopenta[b]pyridine-4-carboxamide]
9 | 2.1 nM | Cc1ccc(F)c(C(=O)Nc2cncc3c2C(=O)N([C@H](C2CC2)C(C)(C)O)C3)c1Cl [Compound 167, (R)-2-chloro-N-(2-(1-cyclopropyl-2-hydroxy-2-methylpropyl)-1-oxo-2,3-dihydro-1H-pyrrolo[3,4-c]pyridin-7-yl)-6-fluoro-3-methylbenzamide]

Row | Compound | EC50
10 | O=C(Nc1cccc2c1C(=O)N(c1ccc(F)cc1)C2)OC1CN2CCC1CC2 (stereo not shown) [Compound 150, Quinuclidin-3-yl(2-(4-fluorophenyl)-3-oxoisoindolin-4-yl)carbamate] | 740 nM
